According to patent publication US20210251991A1, “SUBSTITUTED 2,2'-BIPYRIMIDINYL COMPOUNDS, ANALOGUES THEREOF, AND METHODS USING SAME” (priority 2018, published 2021):

Tested on: HBsAg in HepG2.2.15 cells
Experiment: HBsAg assay: inhibition of HBsAg in HepG2.2.15 cells (chemiluminescence immunoassay of supernatant)
Assay type: cell-based, hepatitis B virus
Details: Hepatitis B virus, HepG2.2.15, 144 h, read-out: sAg EC50, HepG2.2.15 cells, supernatant collected at day 6 after exposure, HBsAg CLIA
Protocol: Inhibition of HBsAg was determined in HepG2.2.15 cells. Cells were maintained in culture medium containing 10% fetal calf serum, […], Glutamine, penicillin/streptomycin. Cells were seeded in 96-well collagen-coated plate at a density of 30,000 cells/well. Serially diluted compounds were added to cells next day at the final DMSO concentration of 0.5%. Cells were incubated with compounds for 2-3 days, after which medium was removed. Fresh medium containing compounds was added to cells for additional 3-4 days. At day 6 after exposure of compounds, supernatant was collected, the HBsAg immunoassay (microplate-based chemiluminescence immunoassay kits, CLIA, Autobio Diagnosics Co., Zhengzhou, China, Catalog #CL0310-2) was used to determine the level of HBsAg according to manufactory instruction. Dose-response curves were generated and the EC50 value (effective concentrations that achieved 50% inhibitory effect) were determined using XLfit software. In addition, cells were seeded at a density of 5,000 cells/well for determination of cell viability in the presence and absence of compounds by using CellTiter-Glo reagent (Promega).

SMILES	EC50 [µM]
CCC1c2ccc(F)c(F)c2CCN1c1cnc(-c2ncccn2)nc1 (centres unmarked) [Example 32, 1-Ethyl-5,6-difluoro-2-(2-pyrimidin-2-ylpyrimidin-5-yl)-3,4-dihydro-1H-isoquinoline]	2
CCC1c2c(OC)ccc(F)c2CCN1c1cnc(-c2ncccn2)nc1 (centres unmarked) [Example 35, 1-Ethyl-5-fluoro-8-methoxy-2-(2-pyrimidin-2-ylpyrimidin-5-yl)-3,4-dihydro-1H-isoquinoline]	0.62
CC1c2ccc(F)c(F)c2CCN1c1ccnc(-c2ncccn2)n1 (centres unmarked) [Example 36, 2-([2,2′-Bipyrimidin]-4-yl)-5,6-difluoro-1-methyl-1,2,3,4-tetrahydroisoquinoline]	0.48
CCC1c2ccc(F)c(F)c2CCN1c1ccnc(-c2ncccn2)n1 (centres unmarked) [Example 39, 1-Ethyl-5,6-difluoro-2-(2-pyrimidin-2-ylpyrimidin-4-yl)-3,4-dihydro-1H-isoquinoline]	0.59
CCC1c2c(OC)ccc(F)c2CCN1c1ccnc(-c2ncccn2)n1 (centres unmarked) [Example 42, 1-Ethyl-5-fluoro-8-methoxy-2-(2-pyrimidin-2-ylpyrimidin-4-yl)-3,4-dihydro-1H-isoquinoline]	0.062
CCC1c2ccc(F)c(OC)c2CCN1c1ccnc(-c2ncccn2)n1 (centres unmarked) [Example 46, 1-Ethyl-6-fluoro-5-methoxy-2-(2-pyrimidin-2-ylpyrimidin-4-yl)-3,4-dihydro-1H-isoquinoline]	0.13
CCC1c2cc(OC)c(F)c(F)c2CCN1c1ccnc(-c2ncccn2)n1 (centres unmarked) [Example 47, 1-Ethyl-5,6-difluoro-7-methoxy-2-(2-pyrimidin-2-ylpyrimidin-4-yl)-3,4-dihydro-1H-isoquinoline]	0.48
CCC1c2cc(F)c(F)cc2CN1c1ccnc(-c2ncccn2)n1 (centres unmarked) [Example 48, 2-([2,2′-Bipyrimidin]-4-yl)-1-ethyl-5,6-difluoroisoindoline]	0.092
CCC1c2cc(F)c(F)cc2CN1c1nc(-c2ncccn2)ncc1F (centres unmarked) [Example 51, 1-Ethyl-5,6-difluoro-2-(5-fluoro-[2,2′-bipyrimidin]-4-yl)isoindoline]	0.027
CCC1c2cc(F)c(F)cc2CN1c1nc(-c2ncccn2)ncc1C (centres unmarked) [Example 52, 1-Ethyl-5,6-difluoro-2-(5-methyl-[2,2′-bipyrimidin]-4-yl)isoindoline]	0.043
CCC1c2cc(F)c(F)cc2CN1c1nc(-c2ncccn2)ncc1Cl (centres unmarked) [Example 53, 2-(5-Chloro-[2,2′-bipyrimidin]-4-yl)-1-ethyl-5,6-difluoroisoindoline]	0.03
CCC1c2cc(F)c(F)cc2CN1c1nc(-c2ncccn2)ncc1C1CC1 (centres unmarked) [Example 54, 2-(5-Cyclopropyl-[2,2′-bipyrimidin]-4-yl)-1-ethyl-5,6-difluoroisoindoline]	0.22
CCC1c2cc(OC)c(OC)cc2CN1c1ccnc(-c2ncccn2)n1 (centres unmarked) [Example 55, 2-([2,2′-Bipyrimidin]-4-yl)-1-ethyl-5,6-dimethoxyisoindoline]	0.024
CCC1c2cc(OC)c(OC)cc2CN1c1nc(-c2ncccn2)ncc1C (centres unmarked) [Example 58, 1-Ethyl-5,6-dimethoxy-2-(5-methyl-[2,2′-bipyrimidin]-4-yl)isoindoline]	0.002
CCC1c2cc(OC)c(OC)cc2CN1c1nc(-c2ncccn2)ncc1NC (centres unmarked) [Example 59, 4-(1-Ethyl-5,6-dimethoxyisoindolin-2-yl)-N-methyl-[2,2′-bipyrimidin]-5-amine]	0.13
CCC1c2cc(OC)c(OC)cc2CN1c1nc(-c2ncccn2)ncc1Cl (centres unmarked) [Example 60, 2-(5-Chloro-[2,2′-bipyrimidin]-4-yl)-1-ethyl-5,6-dimethoxyisoindoline]	0.003
CCC1c2cc(OC)c(OC)cc2CN1c1nc(-c2ncccn2)ncc1C1CC1 (centres unmarked) [Example 61, 2-(5-Cyclopropyl-[2,2′-bipyrimidin]-4-yl)-1-ethyl-5,6-dimethoxyisoindoline]	0.014
CCC1c2cc(OC)c(OC)cc2CN1c1nc(-c2ncccn2)ncc1C(C)C (centres unmarked) [Example 62, 1-Ethyl-2-(5-isopropyl-[2,2′-bipyrimidin]-4-yl)-5,6-dimethoxyisoindoline]	1
CCC1c2cc(F)c(OC)cc2CN1c1ccnc(-c2ncccn2)n1 (centres unmarked) [Example 63, 2-([2,2′-Bipyrimidin]-4-yl)-1-ethyl-6-fluoro-5-methoxyisoindoline]	0.021
CCC1c2cc(F)c(OC)cc2CN1c1nc(-c2ncccn2)ncc1F (centres unmarked) [Example 70, 1-Ethyl-6-fluoro-2-(5-fluoro-[2,2′-bipyrimidin]-4-yl)-5-methoxyisoindoline]	0.005
CCC1c2cc(F)c(O)cc2CN1c1nc(-c2ncccn2)ncc1F (centres unmarked) [Example 75, 1-Ethyl-6-fluoro-2-(5-fluoro-[2,2′-bipyrimidin]-4-yl)isoindolin-5-ol]	0.7

SMILES	EC50 [µM]
CCC1c2cc(OC)c(F)cc2CN1c1ccnc(-c2ncccn2)n1 (centres unmarked) [Example 76, 2-([2,2′-Bipyrimidin]-4-yl)-1-ethyl-5-fluoro-6-methoxyisoindoline]	0.12
c1cnc(-c2nccc(N3CC4CCC3c3ccccc34)n2)nc1 (centres unmarked) [Example 79, 10-([2,2′-Bipyrimidin]-4-yl)-1,2,3,4-tetrahydro-1,4-(epiminomethano)naphthalene]	6
Fc1cnc(-c2ncccn2)nc1N1CC2CCC1c1ccccc12 (centres unmarked) [Example 80, 10-(5-Fluoro-[2,2′-bipyrimidin]-4-yl)-1,2,3,4-tetrahydro-1,4-(epiminomethano)naphthalene]	0.7
Cc1cnc(-c2ncccn2)nc1N1CC2CCC1c1ccccc12 (centres unmarked) [Example 81, 10-(5-Methyl-[2,2′-bipyrimidin]-4-yl)-1,2,3,4-tetrahydro-1,4-(epiminomethano)naphthalene]	0.28
c1cnc(-c2nccc(N3C4CCC3c3ccccc34)n2)nc1 [Example 82, 9-([2,2′-Bipyrimidin]-4-yl)-1,2,3,4-tetrahydro-1,4-epiminonaphthalene]	9
c1cnc(-c2nccc(N3CC4CC3c3ccccc34)n2)nc1 (centres unmarked) [Example 83, 2-([2,2′-Bipyrimidin]-4-yl)-1,2,3,4-tetrahydro-1,4-methanoisoquinoline]	5
COc1cc2c(cc1OC)C1CCC2N1c1cnc(-c2ncccn2)nc1 [Example 84, 9-([2,2′-Bipyrimidin]-5-yl)-6,7-dimethoxy-1,2,3,4-tetrahydro-1,4-epiminonaphthalene]	4
Cc1cnc(-c2ncccn2)nc1N1C2CCC1c1ccccc12 [Example 85, 9-(5-Methyl-[2,2′-bipyrimidin]-4-yl)-1,2,3,4-tetrahydro-1,4-epiminonaphthalene]	3
Fc1cnc(-c2ncccn2)nc1N1C2CCC1c1ccccc12 [Example 86, 9-(5-Fluoro-[2,2′-bipyrimidin]-4-yl)-1,2,3,4-tetrahydro-1,4-epiminonaphthalene]	2.4
COc1cc2c(cc1OC)C1CCC2N1c1nc(-c2ncccn2)ncc1F [Example 87, 9-(5-Fluoro-[2,2′-bipyrimidin]-4-yl)-6,7-dimethoxy-1,2,3,4-tetrahydro-1,4-epiminonaphthalene]	1
COc1cc2c(cc1OC)C1CCC2N1c1nc(-c2ncccn2)ncc1C [Example 88, 6,7-Dimethoxy-9-(5-methyl-[2,2′-bipyrimidin]-4-yl)-1,2,3,4-tetrahydro-1,4-epiminonaphthalene]	2
CCC1c2cc(OC)c(OC)cc2CN1c1nc(-c2ncccn2)nc2ccoc12 (centres unmarked) [Example 91, 4-(1-Ethyl-5,6-dimethoxyisoindolin-2-yl)-2-(pyrimidin-2-yl)furo[3,2-d]pyrimidine]	0.15
CCC1c2cc(OC)c(OC)cc2CN1c1nc(-c2ncccn2)nc2c1COC2 (centres unmarked) [Example 92, 4-(1-Ethyl-5,6-dimethoxyisoindolin-2-yl)-2-(pyrimidin-2-yl)-5,7-dihydrofuro[3,4-d]pyrimidine]	0.18
CCC1c2cc(OC)c(OC)cc2CN1c1nc(-c2ncccn2)nc2scnc12 (centres unmarked) [Example 93, 7-(1-Ethyl-5,6-dimethoxy-isoindolin-2-yl)-5-pyrimidin-2-yl-thiazolo[5,4-d]pyrimidine]	0.2
CCC1c2cc(OC)c(OC)cc2CN1c1nc(-c2ncccn2)nc2c1CCC2 (centres unmarked) [Example 94, 4-(1-Ethyl-5,6-dimethoxy-isoindolin-2-yl)-2-pyrimidin-2-yl-6,7-dihydro-5H-cyclopenta[d]pyrimidine]	0.35
CCC1c2cc(F)c(F)cc2CN1c1ccnc(C(=O)O)n1 (centres unmarked) [Example 95, 4-(1-Ethyl-5,6-difluoroisoindolin-2-yl)pyrimidine-2-carboxylic Acid]	2
CCC1c2cc(F)c(OC)cc2CN1c1ccnc(C(=O)O)n1 (centres unmarked) [Example 96, 4-(1-Ethyl-6-fluoro-5-methoxyisoindolin-2-yl)pyrimidine-2-carboxylic Acid]	1.2
CCC1c2cc(OC)c(OC)cc2CN1c1cnc(C(=O)O)nc1 (centres unmarked) [Example 97, 5-(1-Ethyl-5,6-dimethoxyisoindolin-2-yl)pyrimidine-2-carboxylic Acid]	5
CCC1c2cc(F)c(OC)cc2CN1c1cnc(C(=O)O)nc1 (centres unmarked) [Example 98, 5-(1-Ethyl-6-fluoro-5-methoxyisoindolin-2-yl)pyrimidine-2-carboxylic Acid]	0.24
CCC1c2cc(F)c(OC)cc2CN1c1cnc(C(=O)NS(C)(=O)=O)nc1 (centres unmarked) [Example 101, 5-(1-Ethyl-6-fluoro-5-methoxyisoindolin-2-yl)-N-(methylsulfonyl)pyrimidine-2-carboxamide]	0.65
